Assay results published in DBAASP.
≈ marks a conversion by molar mass, not a printed value. Each block holds one compound with its values, some of them ahead of it.

Tests used:
Test in all cases: ≥ marks a high value that may be exact or a test limit, other limits are often not marked, values filed in µg/mL are converted to µM
[1] = test system: Staphylococcus aureus ATCC 6538P
[2] = test system: Staphylococcus aureus
[3] = test system: Escherichia coli JM109
[4] = test system: Staphylococcus aureus PCM 1944
[5] = test system: Escherichia coli PCM 2057
[6] = test system: Bacillus subtilis ATCC 6633
[7] = test system: Escherichia coli NIHJ JC-2
[8] = test system: Staphylococcus aureus FDA 209P JC-1
[9] = test system: Candida albicans
[10] = test system: Streptococcus mitis ATCC 903
[11] = test system: Streptococcus gordonii Challis DL1
[12] = test system: Streptococcus sanguinis NY101
[13] = test system: Streptococcus mutans UA159
[14] = test system: Pseudomonas aeruginosa PAK

- MIC [1]: 6.02 µM
- MIC [2]: > 64.2 µM
- MIC [3]: 16.1 µM
SMILES: CC[C@H](C)[C@H](NC(=O)[C@H](C)NC(=O)[C@H](CC(C)C)NC(=O)[C@H](CS)NC(=O)[C@H](Cc1cnc[nH]1)NC(=O)[C@H](C)N)C(=O)NCC(=O)N[C@@H](CCCN=C(N)N)C(=O)N[C@@H](CCCN=C(N)N)C(N)=O [AHCLAIGRR]

- MIC [4]: ≥ 753 µM
- MIC [5]: ≥ 753 µM
SMILES: CC[C@H](C)[C@H](NC(=O)[C@H](CC(N)=O)NC(=O)[C@@H](NC(=O)[C@H](C)N)C(C)C)C(=O)N1CCC[C@H]1C(=O)N[C@@H](Cc1ccccc1)C(=O)N[C@@H](CCCCN)C(=O)N[C@H](C(=O)N[C@@H](Cc1cnc[nH]1)C(=O)N[C@@H](Cc1ccccc1)C(=O)N[C@@H](CCCN=C(N)N)C(=O)O)C(C)C [AVNIPFKVHFR]

- MIC [6]: 0.79 µM (≈ 2 µg/mL)
- MIC [7]: 13.4 µM (≈ 34 µg/mL)
- MIC [8]: 3.16 µM (≈ 7.99 µg/mL)
- MIC [9]: > 51.4 µM
SMILES: CC[C@H](C)[C@H](NC(=O)CNC(=O)[C@H](C)NC(=O)[C@H](CC(C)C)NC(=O)[C@@H](NC(=O)[C@@H]1CCCN1C(=O)[C@H](CC(C)C)NC(=O)[C@@H](N)Cc1ccccc1)C(C)C)C(=O)N[C@@H](C)C(=O)N[C@@H](C)C(=O)N[C@@H](CCCCN)C(=O)N[C@H](C(=O)N[C@H](C(=O)N1CCC[C@H]1C(=O)N[C@@H](C)C(=O)N[C@@H](CC(C)C)C(=O)N[C@@H](Cc1ccccc1)C(=O)N[C@H]1CSSC[C@@H](C(=O)O)NC(=O)[C@H](CCCCN)NC(=O)[C@H](CCCCN)NC(=O)[C@H]([C@@H](C)O)NC(=O)[C@H]([C@@H](C)CC)NC(=O)[C@H](CCCCN)NC1=O)C(C)C)C(C)C [FLPVLAGIAAKVVPALFCKITKKC]

- MIC [10]: 5.57 µM (≈ 16 µg/mL)
- MIC [2]: 21.7 µM (≈ 62.5 µg/mL)
- MIC [11]: 11.1 µM (≈ 32 µg/mL)
- MIC [12]: 11.1 µM (≈ 32 µg/mL)
- MIC [13]: 2.78 µM (≈ 8 µg/mL)
- MIC [14]: ≥ 43.5 µM
SMILES: CC[C@H](C)[C@H](N)C(=O)N[C@@H](CCCCN)C(=O)N[C@@H](CCC(N)=O)C(=O)N[C@@H](CC(C)C)C(=O)N[C@@H](CC(C)C)C(=O)N[C@@H](Cc1cnc[nH]1)C(=O)N[C@@H](Cc1ccccc1)C(=O)N[C@@H](Cc1ccccc1)C(=O)N[C@@H](CCC(N)=O)C(=O)N[C@@H](CCCN=C(N)N)C(=O)N[C@@H](Cc1ccccc1)C(=O)NCC(=O)NCC(=O)NCC(=O)N[C@@H](Cc1ccccc1)C(=O)N[C@H](C(=O)N[C@@H](CCCCN)C(=O)N[C@@H](Cc1cnc[nH]1)C(=O)N[C@@H](Cc1ccccc1)C(=O)N[C@H](C(=O)N[C@@H](Cc1cnc[nH]1)C(=O)N[C@@H](CCCN=C(N)N)C(=O)N[C@@H](Cc1ccccc1)C(N)=O)[C@@H](C)CC)[C@@H](C)CC [IKQLLHFFQRFGGGFIKHFIHRF]
